Test results from EP3909969A1, “PEPTIDE FOR HYDROGEL FORMATION” (Freie Universität Berlin, priority 2020, dated 2021).

Tested on: NIH/3T3 embryonic mouse fibroblast cells
Test: Cytotoxicity assay of hydrogel cultured cells by Cell Counting Kit-8 (CCK-8)
Assay type: cell-based
Settings: hydrogel at 0.3 wt%, after 24 h, NIH/3T3 cells
Experimental: NIH/3T3 embryonic mouse fibroblast cells were cultured in DMEM culture medium (Lonza, 4,5 g/L glucose, 10 % FCS, 1 % penicillin/streptomycin) in a humidified incubator (5 % CO2, 37°C). The cells were grown in 175 cm^2 cell culture flaks and medium was changed thrice a week. Upon confluency of 70 % - 80 % the culture was subcultured according to the detected cell number.
To determine whether different peptide hydrogel compositions would be tolerated by the cells CCK-8 was used to conduct viability of cells during a 3 days cell culture. A suspension of NIH/3T3 cells in DMEM (4.5 g/L, 10 % FCS, 1 % penicillin/streptomycin) was seeded in a transparent 96-well plate with a density of 10.000 cells in an overall volume of 100 µL per well containing the respecting hydrogels. 10 µL of 1 % (w/v) SDS was added to the respective wells of positive control and the plate was further incubated for 24 h and 72 h at 37°C and 5 % CO2 respectively. After each time points 10 µL of CCK-8 solution were added to each well and allowed to incubate for 2 h in a humidified incubator at 37°C. During this time dehydrogenases in viable cells reduces WST-8 tetrazolium to formazan, which will be detected by measuring the absorbance at 450 nm. Absorbance was measured by using a Tecan Infinite 200 Pro microplate reader. Three experiments were performed in triplicates per hydrogel candidate (n=3). […]

For `CC(C)C[C@H](NC(=O)[C@H](CCC(=O)O)NC(=O)[C@H](CCCCN)NC(=O)[C@H](CCCCN)NC(=O)[C@H](CC(C)C)NC(=O)[C@H](C)NC(=O)[C@H](C)NC(=O)[C@H](CC(C)C)NC(=O)[C@H](CCC(=O)O)NC(=O)[C@H](CCCCN)NC(=O)[C@H](CCCCN)NC(=O)[C@H](CC(C)C)NC(=O)[C@H](C)NC(=O)[C@H](C)NC(=O)[C@H](CC(C)C)NC(=O)[C@H](CCC(=O)O)NC(=O)[C@H](CCCCN)NC(=O)[C@H](CCCCN)NC(=O)[C@H](CC(C)C)NC(=O)[C@H](C)NC(=O)[C@H](C)NC(=O)[C@H](CC(C)C)NC(=O)[C@H](CCC(=O)O)NC(=O)[C@H](CCCCN)NC(=O)[C@H](CCCCN)NC(=O)[C@H](CC(C)C)NC(=O)c1ccccc1N)C(=O)O` [hFF03], the “viability compared to the control” value was “higher than 160%”.
